Assay results: ChEMBL document CHEMBL1201862, “PubChem BioAssay data set” (2004)
Blank lines part the entries; values can stand above or below the molecule they belong to. Activity calls are given as the source filed them.

Key:
[1] = HIV-1 Vif–A3G interaction blockers – biochemical, TR-FRET, GST-Vif 1-94, biotin-A3G peptide, dose response retest, primary screen (AID 1117319); assay type: functional;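 also: TR-FRET signal of purified GST-Vif binding a biotinylated A3G peptide; inhibitors lower the FRET signal by blocking Vif and A3G binding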
Estrogen receptor beta = Estrogen receptor beta (Homo sapiens, UniProt Q92731);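 also: recombinant ER-beta bound to coactivator SRC1 peptide in presence of estradiol agonist; inhibitors block coactivator peptide binding and lower the FRET signal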
Sequence of Estrogen receptor beta (Q92731 whole entry): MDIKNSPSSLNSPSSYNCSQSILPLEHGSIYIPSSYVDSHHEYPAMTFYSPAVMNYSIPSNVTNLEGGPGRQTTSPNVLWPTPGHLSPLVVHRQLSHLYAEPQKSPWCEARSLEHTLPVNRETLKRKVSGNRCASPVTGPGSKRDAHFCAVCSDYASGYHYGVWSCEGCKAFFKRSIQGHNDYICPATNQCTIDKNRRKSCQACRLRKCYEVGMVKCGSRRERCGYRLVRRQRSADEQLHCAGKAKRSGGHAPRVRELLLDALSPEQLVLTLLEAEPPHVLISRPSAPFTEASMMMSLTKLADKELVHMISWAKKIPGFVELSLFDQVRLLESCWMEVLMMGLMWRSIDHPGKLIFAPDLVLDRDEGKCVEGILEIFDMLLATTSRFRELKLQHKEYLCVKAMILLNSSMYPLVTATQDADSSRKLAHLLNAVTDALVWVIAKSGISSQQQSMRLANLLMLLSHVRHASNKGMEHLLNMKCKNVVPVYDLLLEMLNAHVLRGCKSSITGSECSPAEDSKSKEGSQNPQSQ

[2] = molecular target: T1, RNA-editing ligase 1, mitochondrial (Trypanosoma brucei brucei, UniProt P86926); assay: inhibition of trypanosome RNA editing ligase – biochemical, fluorescence, Trypanosoma brucei, dose response (AID 1117295); assay type: functional
T1 sequence (P86926 whole entry): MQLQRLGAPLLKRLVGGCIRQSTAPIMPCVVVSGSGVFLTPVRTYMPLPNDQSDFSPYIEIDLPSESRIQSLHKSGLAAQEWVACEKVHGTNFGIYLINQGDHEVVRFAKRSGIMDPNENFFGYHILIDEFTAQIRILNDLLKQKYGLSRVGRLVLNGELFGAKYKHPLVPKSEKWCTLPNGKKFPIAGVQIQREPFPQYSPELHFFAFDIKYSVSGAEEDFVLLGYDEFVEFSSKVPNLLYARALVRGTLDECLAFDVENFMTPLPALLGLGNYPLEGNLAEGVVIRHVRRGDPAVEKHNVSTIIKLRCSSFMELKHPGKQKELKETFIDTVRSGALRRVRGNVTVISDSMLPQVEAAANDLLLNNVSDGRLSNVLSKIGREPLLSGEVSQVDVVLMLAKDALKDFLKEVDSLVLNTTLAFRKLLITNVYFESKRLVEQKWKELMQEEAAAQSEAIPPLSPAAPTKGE

[3] = molecular target: T2, Trace amine-associated receptor 1 (Homo sapiens, UniProt Q96RJ0); assay: Fluorescence-based cell-based high throughput dose response assay to identify agonists of the human trace amine associated receptor 1 (TAAR1).; assay type: functional
T2 sequence (Q96RJ0 whole entry): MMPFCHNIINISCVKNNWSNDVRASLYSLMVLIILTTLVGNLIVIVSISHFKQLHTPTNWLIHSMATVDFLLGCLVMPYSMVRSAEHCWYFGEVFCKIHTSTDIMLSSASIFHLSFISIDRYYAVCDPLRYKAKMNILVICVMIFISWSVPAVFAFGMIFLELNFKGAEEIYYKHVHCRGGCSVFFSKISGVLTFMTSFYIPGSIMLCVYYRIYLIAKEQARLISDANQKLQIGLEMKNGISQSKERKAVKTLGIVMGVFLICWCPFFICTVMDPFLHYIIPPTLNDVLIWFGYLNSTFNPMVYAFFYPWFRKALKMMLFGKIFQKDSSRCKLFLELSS

cells [4] = assay type: functional, cell-based
[5] = molecular target: T2, Trace amine-associated receptor 1; assay: Counterscreen for agonists of the human trace amine associated receptor 1 (hTAAR1): Fluorescence-based cell-based high throughput dose response assay to identify hTAAR1 agonist that also desensitize TAAR1 receptor response.; assay type: functional
cells [6] = assay type: functional, cell-based; remark: listed apart in the source
[7] = molecular target: T3, Heat shock factor protein 1 (Mus musculus, UniProt P38532); assay: enhancement of HSF1-driven luciferase signal – cell-based, NIH3T3, luminescence, dose retest, confirmation (AID 435004); assay type: functional;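 also: stress induced by proteasome inhibitor MG132 added 30 min after compound; luciferase reporter driven by HSF1 response element in NIH3T3 cells; actives raise luminescence as potentiators of the MG132 stress response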
T3 sequence (P38532 whole entry): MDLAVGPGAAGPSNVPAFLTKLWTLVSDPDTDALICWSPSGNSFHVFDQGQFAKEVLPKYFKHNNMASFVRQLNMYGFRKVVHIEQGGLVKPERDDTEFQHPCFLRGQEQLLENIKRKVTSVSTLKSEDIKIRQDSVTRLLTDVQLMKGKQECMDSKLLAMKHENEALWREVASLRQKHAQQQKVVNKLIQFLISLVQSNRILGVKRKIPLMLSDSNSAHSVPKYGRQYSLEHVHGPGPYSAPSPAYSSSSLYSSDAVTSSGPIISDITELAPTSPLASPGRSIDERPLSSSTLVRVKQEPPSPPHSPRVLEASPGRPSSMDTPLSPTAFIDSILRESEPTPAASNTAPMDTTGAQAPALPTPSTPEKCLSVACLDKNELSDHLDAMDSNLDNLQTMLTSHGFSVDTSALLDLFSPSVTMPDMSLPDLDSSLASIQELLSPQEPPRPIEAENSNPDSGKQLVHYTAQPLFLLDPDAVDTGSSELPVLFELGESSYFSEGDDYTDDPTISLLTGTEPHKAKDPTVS

[8] = HGIII-sPLA2 enzyme inhibition potency – biochemical, QFRET, IC50, dose response (AID 743457);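 also: green fluorescence rise as the enzyme cleaves BODIPY PC-A2 in liposomes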
Cytochrome P450 1A2 = molecular target: T4, Cytochrome P450 1A2 (Homo sapiens, UniProt P05177);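 also: PubChem cytochrome P450 panel assay, CYP1A2 panel member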
T4 sequence (P05177 whole entry): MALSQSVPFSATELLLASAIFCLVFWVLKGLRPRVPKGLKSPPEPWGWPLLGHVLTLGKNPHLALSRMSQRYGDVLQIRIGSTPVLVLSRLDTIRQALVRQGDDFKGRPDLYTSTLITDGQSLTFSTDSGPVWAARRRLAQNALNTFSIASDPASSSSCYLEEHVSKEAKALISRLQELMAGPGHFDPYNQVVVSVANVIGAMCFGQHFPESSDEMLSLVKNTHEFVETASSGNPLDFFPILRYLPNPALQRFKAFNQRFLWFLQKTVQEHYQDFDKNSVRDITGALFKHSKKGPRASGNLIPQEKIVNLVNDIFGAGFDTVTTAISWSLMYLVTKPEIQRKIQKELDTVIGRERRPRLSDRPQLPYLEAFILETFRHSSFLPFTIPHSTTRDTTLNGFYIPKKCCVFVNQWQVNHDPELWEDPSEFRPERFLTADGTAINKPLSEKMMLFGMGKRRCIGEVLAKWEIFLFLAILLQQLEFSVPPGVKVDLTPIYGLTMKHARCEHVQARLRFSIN

Cytochrome P450 3A4 = Cytochrome P450 3A4 (Homo sapiens, UniProt P08684);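 also: CYP3A4 tested as one member of a cytochrome P450 panel screen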
Sequence of Cytochrome P450 3A4 (P08684 whole entry): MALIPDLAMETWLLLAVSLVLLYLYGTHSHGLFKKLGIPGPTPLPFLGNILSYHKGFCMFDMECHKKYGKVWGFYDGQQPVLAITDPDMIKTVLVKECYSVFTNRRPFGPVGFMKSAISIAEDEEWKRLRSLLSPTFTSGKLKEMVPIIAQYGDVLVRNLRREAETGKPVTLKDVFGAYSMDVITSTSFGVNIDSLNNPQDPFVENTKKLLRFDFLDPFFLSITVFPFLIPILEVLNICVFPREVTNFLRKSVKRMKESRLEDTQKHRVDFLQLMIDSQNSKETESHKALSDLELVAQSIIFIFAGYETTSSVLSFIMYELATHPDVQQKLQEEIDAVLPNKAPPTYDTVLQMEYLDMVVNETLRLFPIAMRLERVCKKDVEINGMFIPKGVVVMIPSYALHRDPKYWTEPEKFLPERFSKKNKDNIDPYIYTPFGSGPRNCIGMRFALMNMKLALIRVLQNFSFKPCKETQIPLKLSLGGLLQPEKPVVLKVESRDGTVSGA

Cytochrome P450 2D6 = Cytochrome P450 2D6 (Homo sapiens, UniProt P10635);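 also: CYP2D6 member of a cytochrome P450 panel assay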
Sequence of Cytochrome P450 2D6 (P10635 whole entry): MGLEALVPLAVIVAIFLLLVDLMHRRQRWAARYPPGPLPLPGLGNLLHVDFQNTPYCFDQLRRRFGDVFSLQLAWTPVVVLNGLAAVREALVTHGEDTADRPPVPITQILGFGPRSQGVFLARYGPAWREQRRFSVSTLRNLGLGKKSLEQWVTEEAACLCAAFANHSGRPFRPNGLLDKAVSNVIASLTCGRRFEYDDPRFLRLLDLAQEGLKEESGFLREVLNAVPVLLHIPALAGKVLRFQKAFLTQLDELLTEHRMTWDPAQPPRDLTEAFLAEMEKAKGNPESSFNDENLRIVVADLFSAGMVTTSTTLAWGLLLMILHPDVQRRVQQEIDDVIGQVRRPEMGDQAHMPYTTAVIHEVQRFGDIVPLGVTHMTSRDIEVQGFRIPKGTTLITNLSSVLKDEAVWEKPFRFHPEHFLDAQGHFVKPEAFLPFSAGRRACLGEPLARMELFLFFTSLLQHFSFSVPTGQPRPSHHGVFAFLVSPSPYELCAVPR

Ephrin type-A receptor 4 = Ephrin type-A receptor 4 (Mus musculus, UniProt Q03137); assay: EphA4 ligand-binding antagonists – biochemical, colorimetric, mouse EphA4, primary screen (AID 689); assay type: functional
Sequence of Ephrin type-A receptor 4 (Q03137 whole entry): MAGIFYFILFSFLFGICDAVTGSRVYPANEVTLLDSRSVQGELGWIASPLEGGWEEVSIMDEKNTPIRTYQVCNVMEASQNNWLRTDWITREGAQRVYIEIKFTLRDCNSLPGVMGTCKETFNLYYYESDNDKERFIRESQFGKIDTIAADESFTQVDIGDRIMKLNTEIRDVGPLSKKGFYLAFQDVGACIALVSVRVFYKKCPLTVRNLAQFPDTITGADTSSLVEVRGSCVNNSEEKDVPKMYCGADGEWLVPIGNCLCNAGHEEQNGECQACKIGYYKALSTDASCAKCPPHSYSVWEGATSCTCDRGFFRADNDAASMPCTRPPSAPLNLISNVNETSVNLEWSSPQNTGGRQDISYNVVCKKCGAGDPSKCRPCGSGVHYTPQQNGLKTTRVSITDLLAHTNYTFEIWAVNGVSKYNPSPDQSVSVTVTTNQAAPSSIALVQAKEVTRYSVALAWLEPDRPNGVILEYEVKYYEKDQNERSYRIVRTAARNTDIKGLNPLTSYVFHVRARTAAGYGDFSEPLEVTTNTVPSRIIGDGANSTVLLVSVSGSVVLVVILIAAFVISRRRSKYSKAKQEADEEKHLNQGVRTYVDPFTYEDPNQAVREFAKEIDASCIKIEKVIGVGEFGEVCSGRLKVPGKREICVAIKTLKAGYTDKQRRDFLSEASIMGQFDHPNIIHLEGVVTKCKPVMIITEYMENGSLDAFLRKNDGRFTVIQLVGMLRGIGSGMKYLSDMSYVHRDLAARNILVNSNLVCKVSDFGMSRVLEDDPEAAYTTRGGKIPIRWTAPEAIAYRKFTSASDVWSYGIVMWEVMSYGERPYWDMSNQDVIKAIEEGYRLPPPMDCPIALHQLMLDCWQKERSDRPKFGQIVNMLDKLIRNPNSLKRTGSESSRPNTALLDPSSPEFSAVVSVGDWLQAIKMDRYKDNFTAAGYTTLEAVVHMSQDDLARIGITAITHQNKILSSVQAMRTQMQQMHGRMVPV

[9] = potency of ADAM10 substrate cleavage blockers – biochemical, QFRET, dose response (AID 743254);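 also: ADAM10 enzyme with the DM2 quenched FRET peptide as substrate; EDANS fluorescence gain as the protease cuts the substrate; inhibitor potency against ADAM10 proteolytic activity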
[10] = molecular target: T5, Disintegrin and metalloproteinase domain-containing protein 17 (Homo sapiens, UniProt P78536); assay: inhibition of ADAM17 substrate cleavage – biochemical, quenched FRET substrate, counter-screen for ADAM10 exosite inhibitor project, dose response (AID 743253)
T5 sequence (P78536 whole entry, the tested form may be a part): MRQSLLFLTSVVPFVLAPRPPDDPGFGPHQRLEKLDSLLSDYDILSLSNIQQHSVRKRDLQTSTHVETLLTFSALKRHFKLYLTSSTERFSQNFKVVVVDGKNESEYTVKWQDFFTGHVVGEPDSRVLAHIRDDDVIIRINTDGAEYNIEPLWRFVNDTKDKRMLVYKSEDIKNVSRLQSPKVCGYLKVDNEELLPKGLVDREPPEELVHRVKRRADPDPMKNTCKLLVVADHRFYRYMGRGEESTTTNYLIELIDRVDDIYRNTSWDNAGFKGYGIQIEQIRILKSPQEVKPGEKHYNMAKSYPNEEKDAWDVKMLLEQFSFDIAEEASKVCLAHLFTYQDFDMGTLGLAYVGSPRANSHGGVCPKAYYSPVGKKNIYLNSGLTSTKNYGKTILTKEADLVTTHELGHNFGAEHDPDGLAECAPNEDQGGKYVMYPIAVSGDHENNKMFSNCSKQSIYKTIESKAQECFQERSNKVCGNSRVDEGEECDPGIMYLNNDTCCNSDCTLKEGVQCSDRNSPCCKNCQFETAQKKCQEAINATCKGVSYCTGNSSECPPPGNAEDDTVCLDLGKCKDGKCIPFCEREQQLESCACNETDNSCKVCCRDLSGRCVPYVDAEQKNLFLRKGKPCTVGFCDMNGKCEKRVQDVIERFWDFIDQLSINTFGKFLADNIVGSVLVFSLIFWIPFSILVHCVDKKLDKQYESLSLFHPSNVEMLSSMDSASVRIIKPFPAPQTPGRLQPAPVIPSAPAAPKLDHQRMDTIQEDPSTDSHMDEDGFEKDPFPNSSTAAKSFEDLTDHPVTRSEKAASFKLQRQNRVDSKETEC

[11] = molecular target: T5, Disintegrin and metalloproteinase domain-containing protein 17; assay: exosite inhibitors of ADAM17, dose response, biochemical (AID 743260)

SMILES: COc1cc(NC(=O)c2cccs2)c(C(=O)OCC(=O)NC(=O)NC(C)(C)C)cc1OC
IC50 (Estrogen receptor beta): > 50 µM (not active)

SMILES: COc1cccc(CNc2nc(NCc3ccccc3)nc3ccsc23)c1
IC50 [2]: > 96.6 µM (inactive)

SMILES: O=C(Nc1nccs1)c1[nH]cnc1C(=O)N1CCc2ccccc2C1
EC50 [3]: 0.858 µM (active)
IC50 (cells [4]): > 29.9 µM (inactive)
IC50 [5]: 4.95 µM (active)
EC50 (cells [6]): > 29.9 µM (inactive)

SMILES: CC(=O)OC1(c2ccc(C)cc2)CN2CCC1c1ccccc12 (stereo not drawn)
IC50 (Ephrin type-A receptor 4): > 100 µM (not active)

SMILES: Cc1ccccc1NC(C)C(=O)N/N=C/c1ccccc1OCc1cccc(Br)c1 (stereo not drawn)
IC50 [9]: > 69.5 µM (inactive)
IC50 [10]: > 69.5 µM (inactive)
IC50 [11]: > 69.5 µM (inactive)

SMILES: CCN(CC)c1ccc(C=NNC(=O)c2cc(-c3ccc(C)c(C)c3)[nH]n2)c(O)c1
IC50 [8]: > 122 µM (inactive)

Other lines, results leading:

IC50 [1]: > 100 µM (active)
SMILES: O=C(NCc1ccc(Cl)cc1)c1ccccc1Oc1ccccc1

EC50 [7]: > 260 µM (inactive)
IC50 [8]: > 122 µM (inactive)
SMILES: C=CCNC(=S)NNC(=O)c1cccn(Cc2ccc(Cl)c(Cl)c2)c1=O

AC50 (Cytochrome P450 1A2): 17.8 µM (inconclusive)
AC50 (Cytochrome P450 3A4): 15.8 µM (inconclusive)
AC50 (Cytochrome P450 2D6): 44.7 µM (inconclusive)
IC50 [1]: > 100 µM (active)
SMILES: S=C(Nc1cccc(Cl)c1)NC1CCCCC1
